Laboratory results from publication PMC10112521, “High-throughput AR dimerization assay identifies androgen disrupting chemicals and metabolites” (Frontiers in Toxicology, 2023).
Like-named read-outs stand apart in the source and are kept apart here.

Assays:
[1] = test system: AR2 cells (HepG2-AR2)
Procedure: (§1) For antagonist mode and cytotoxicity data, well-level normalized response (resp) was calculated as: resp=100 * RLU−bval/pval−bval where pval is the median RLU value of the MEC positive control wells (minimum four wells).

[2] = test system: AR2 cells (HepG2-AR2); assay: Alamar Blue (resazurin) post hoc cell viability / cytotoxicity assay in AR2 cells; details: spid Viability, sheet antagonist_fits; for hill_tp (Hill model top): 0 where win_model is Constant
Procedure: as §1

[3] = test system: AR; parameters: method as in Kleinstreuer et al., 2017; details: 2017, cited from earlier work; for Agonist reference: AR agonist reference class ref Kleinstreuer et al.; for Antagonist reference: AR antagonist reference class ref Kleinstreuer et al.
[4] = target: T1, human AR (Homo sapiens, UniProt P10275); assay: cell-based; parameters: species or system AR2 cells (HepG2-AR2); NanoLuc complementation AR homodimerization, antagonist mode, loss of agonist-induced luminescence, AC50 by Hill fit; details: hill_ga
T1 sequence (P10275 1-920) 1: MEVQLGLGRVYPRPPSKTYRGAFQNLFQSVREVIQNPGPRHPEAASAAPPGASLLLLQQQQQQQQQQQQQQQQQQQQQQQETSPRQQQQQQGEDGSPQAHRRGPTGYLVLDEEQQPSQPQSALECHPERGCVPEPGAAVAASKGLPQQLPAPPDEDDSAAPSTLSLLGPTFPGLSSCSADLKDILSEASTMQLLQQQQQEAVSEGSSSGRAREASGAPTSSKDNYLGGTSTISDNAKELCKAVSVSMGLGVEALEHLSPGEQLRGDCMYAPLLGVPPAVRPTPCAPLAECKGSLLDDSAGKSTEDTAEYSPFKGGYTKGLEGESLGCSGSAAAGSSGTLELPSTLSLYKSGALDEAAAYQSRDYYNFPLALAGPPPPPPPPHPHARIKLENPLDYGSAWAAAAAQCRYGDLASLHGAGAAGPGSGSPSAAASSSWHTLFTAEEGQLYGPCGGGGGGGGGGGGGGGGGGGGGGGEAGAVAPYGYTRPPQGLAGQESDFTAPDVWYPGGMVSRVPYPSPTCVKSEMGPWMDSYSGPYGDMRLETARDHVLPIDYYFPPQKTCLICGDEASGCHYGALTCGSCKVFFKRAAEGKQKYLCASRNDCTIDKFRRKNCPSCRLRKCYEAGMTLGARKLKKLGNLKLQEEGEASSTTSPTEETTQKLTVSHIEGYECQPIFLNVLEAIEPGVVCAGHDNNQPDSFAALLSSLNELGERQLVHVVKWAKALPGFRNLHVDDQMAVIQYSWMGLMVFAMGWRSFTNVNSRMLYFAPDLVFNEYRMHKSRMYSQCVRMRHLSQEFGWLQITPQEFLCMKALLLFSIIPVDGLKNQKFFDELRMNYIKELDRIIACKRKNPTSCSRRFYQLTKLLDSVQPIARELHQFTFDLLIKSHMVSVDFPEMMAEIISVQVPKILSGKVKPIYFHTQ
T1 sequence (P10275 1-920) 2: T1 sequence (P10275 1-920) 1

[5] = target: T1, human AR; assay: AR2 assay, agonist mode: ligand-dependent AR homodimerization (NanoBiT luciferase complementation) in stable HepG2-AR2 cells; format: cell-based; details: sheet agonist_fits; for hill_tp: Hill model top (efficacy), 0 given where win_model is Constant; for max_med: maximum median response; for win_model: winning concentration-response model (Constant, Hill, Gain-Loss);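 for hill tp: Log2 fold change of luminescence over DMSO vehicle wells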;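 for max med: Log2 fold change of luminescence over DMSO vehicle wells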
[6] = target: T1, human AR; assay: AR2 assay, antagonist mode: disruption of R1881 (10 nM)-induced AR homodimerization in HepG2-AR2 cells; format: cell-based
[7] = spid AR_antagonist, sheet antagonist_fits
[8] = spid AR_antagonist, sheet antagonist_fits, 0 where win_model is Constant
[9] = spid=Bgal, antagonist mode, 10 nM agonist stimulus, 18 h, no CYP expressed
[10] = spid=No_RNA, antagonist mode, 10 nM agonist stimulus, 18 h, no CYP expressed
[11] = spid AR_antagonist, sheet antagonist_fits, Hill fit parameter

CC(C)(C)CC(C)(C)c1ccc(O)cc1 [4-(1,1,3,3-Tetramethylbutyl)phenol]
hill_ga (Hill model log AC50) [1]: 1.5
max_med (maximum median response) [2]: 99.7722
hill_tp (Hill model top) [2]: 100.987

CC(C)(c1ccccc1)c1ccc(O)cc1 [4-Cumylphenol]
hill_ga (Hill model log AC50) [1]: 1.81
max_med (maximum median response) [2]: 99.676

Nc1nc[nH]n1 [Amitrole]
hill_ga (Hill model log AC50) [1]: 1.008
max_med (maximum median response) [2]: 20.9539
hill_tp (Hill model top) [2]: 26.1033

O=c1cc(-c2ccc(O)cc2)oc2cc(O)cc(O)c12 [Apigenin]
hill_ga (Hill model log AC50) [1]: 1.291
max_med (maximum median response) [2]: 44.3137
hill_tp (Hill model top) [2]: 57.4844

CCNc1nc(Cl)nc(NC(C)C)n1 [Atrazine]
hill_ga (Hill model log AC50) [1]: 1.242
max_med (maximum median response) [2]: 11.6649
hill_tp (Hill model top) [2]: 7.792
Agonist reference [3]: Inactive
Antagonist reference [3]: Inactive
Agonist reference ([3]; Supplementary Table S1): Inactive
Antagonist reference ([3]; Supplementary Table S1): Inactive

Oc1ccc(C(c2ccc(O)cc2)(C(F)(F)F)C(F)(F)F)cc1 [Bisphenol AF]
hill_ga (Hill model log AC50) [1]: 1.485
max_med (maximum median response) [2]: 99.8528
hill_tp (Hill model top) [2]: 100.2

CCC(C)(c1ccc(O)cc1)c1ccc(O)cc1 [Bisphenol B]
hill_ga (Hill model log AC50) [1]: 1.739
max_med (maximum median response) [2]: 49.2471
hill_tp (Hill model top) [2]: 49.223

CNC(=O)Oc1cccc2c1OC(C)(C)C2 [Carbofuran]
AC50 [4]: 44.2 µM
hill_tp [5]: 0
max_med [5]: 0.1027
win_model [5]: Constant
max_med (maximum median response) [2]: 23.3178
hill_tp (Hill model top) [2]: 15.7111
max_med (maximum median response) [6, 7]: 28.4656
win_model (winning concentration-response model) [6, 7]: Hill
hill_gw (Hill model slope) [6, 8]: 1.516
hill_tp (Hill model top) [6, 8]: 33.2623

CC1(C)C(C=C(Cl)Cl)C1C(=O)OC(C#N)c1ccc(F)c(Oc2ccccc2)c1 (stereo not drawn) [Cyfluthrin]
hill_ga (Hill model log AC50) [1]: 0
max_med (maximum median response) [2]: 9.8887
hill_tp (Hill model top) [2]: 0
Agonist reference [3]: Inactive

CC1(C)C(C=C(Cl)Cl)C1C(=O)OC(C#N)c1cccc(Oc2ccccc2)c1 (stereo not drawn) [Cypermethrin]
hill_ga (Hill model log AC50) [1]: 0
max_med (maximum median response) [2]: 5.609
hill_tp (Hill model top) [2]: 0
Agonist reference [3]: Inactive

O=c1c(-c2ccc(O)cc2)coc2cc(O)ccc12 [Daidzein]
AC50 [4, 9]: 59.8 µM
AC50 [4, 10]: 46.5 µM
hill_tp [5]: 0
max_med [5]: 0.1579
win_model [5]: Constant
max_med (maximum median response) [2]: 12.142
hill_tp (Hill model top) [2]: 8.263
max_med (maximum median response) [6, 7]: 67.6764
win_model (winning concentration-response model) [6, 7]: Hill
hill_gw (Hill model slope) [6, 8]: 1.585
hill_tp (Hill model top) [6, 8]: 87.2882
Agonist reference ([3]; Supplementary Table S1): Inactive

CCCCOC(=O)c1ccccc1C(=O)OCCCC [Dibutyl phthalate]
hill_ga (Hill model log AC50) [1]: 1.084
max_med (maximum median response) [2]: 27.2383
hill_tp (Hill model top) [2]: 28.3952

N#Cc1c(Cl)cccc1Cl [Dichlobenil]
hill_ga (Hill model log AC50) [1]: 0
max_med (maximum median response) [2]: 10.2924
hill_tp (Hill model top) [2]: 0

CCOC(=O)c1ccccc1C(=O)OCC [Diethyl phthalate]
hill_ga (Hill model log AC50) [1]: 0.07147
max_med (maximum median response) [2]: 22.6345
hill_tp (Hill model top) [2]: 17.9391

CCOC(=O)c1ccc(O)cc1 [Ethylparaben]
hill_ga (Hill model log AC50) [1]: 0
max_med (maximum median response) [2]: 6.202
hill_tp (Hill model top) [2]: 0

C=C1C[C@@H]2[C@H](CC[C@]3(C)C(=O)CC[C@@H]23)[C@@]2(C)C=CC(=O)C=C12 [Exemestane]
hill_tp (Hill model top) [1]: 0
max_med (maximum median response) ([1]; spid Viability, sheet antagonist_fits): 7.414

OC(c1ccc(Cl)cc1)(c1cncnc1)c1ccccc1Cl (stereo not drawn) [Fenarimol]
hill_ga (Hill model log AC50) [1]: 0
max_med (maximum median response) [2]: 16.9049
hill_tp (Hill model top) [2]: 0
Agonist reference [3]: Inactive
Antagonist reference [3]: Weak
Antagonist reference ([3]; Supplementary Table S1): Weak

O=C1c2ccccc2C(=O)N1SC(Cl)(Cl)Cl [Folpet]
hill_ga (Hill model log AC50) [1]: 1.483
max_med (maximum median response) [2]: 26.2456
hill_tp (Hill model top) [2]: 26.8665

O=c1c(-c2ccc(O)cc2)coc2cc(O)cc(O)c12 [Genistein]
AC50 [4, 9]: 9.34 µM
AC50 [4, 10]: 9.32 µM
hill_tp [5]: 0
max_med [5]: 0.108
win_model [5]: Constant
max_med (maximum median response) [2]: 23.3224
hill_tp (Hill model top) [2]: 24.3043
hill_tp (Hill model top) [6]: 100.659
max_med (maximum median response) [6]: 101.398
win_model (winning concentration-response model) [6, 7]: Hill
hill_gw (Hill model slope) [6, 8]: 2.066

CC(C)NC(=O)N1CC(=O)N(c2cc(Cl)cc(Cl)c2)C1=O [Iprodione]
hill_ga (Hill model log AC50) [1]: 0
max_med (maximum median response) [2]: 9.628
hill_tp (Hill model top) [2]: 0
Agonist reference ([3]; Supplementary Table S1): Inactive

CNc1cnn(-c2cccc(C(F)(F)F)c2)c(=O)c1Cl [Norflurazon]
hill_ga (Hill model log AC50) [1]: 0
max_med (maximum median response) [2]: 4.6212
hill_tp (Hill model top) [2]: 0

C#CCOS(=O)OC1CCCCC1Oc1ccc(C(C)(C)C)cc1 (stereo not drawn) [Propargite]
hill_ga (Hill model log AC50) [1]: 0.5083
max_med (maximum median response) [2]: 5.892
hill_tp (Hill model top) [2]: 5.298

CCNc1nc(Cl)nc(NCC)n1 [Simazine]
hill_ga (Hill model log AC50) [1]: -0.7451
max_med (maximum median response) [2]: 12.6117
hill_tp (Hill model top) [2]: 7.295
Antagonist reference [3]: Inactive

CC(C)(C)C(=O)C(Oc1ccc(Cl)cc1)n1cncn1 (stereo not drawn) [Triadimefon]
hill_ga (Hill model log AC50) [1]: -3.878
max_med (maximum median response) [2]: 19.918
hill_tp (Hill model top) [2]: 58.3985

C=CC1(C)OC(=O)N(c2cc(Cl)cc(Cl)c2)C1=O (stereo not drawn) [Vinclozolin]
hill_ga (Hill model log AC50) [1]: -3.255
max_med (maximum median response) [2]: 15.9864
hill_tp (Hill model top) [2]: 12.9726
Antagonist reference [3]: Weak
Antagonist reference ([3]; Supplementary Table S1): Weak

COP(=O)(OC)O/C(=C\Cl)c1cc(Cl)c(Cl)cc1Cl [Z-Tetrachlorvinphos]
AC50 [4, 9]: 28.8 µM
AC50 [4, 10]: 28.9 µM
hill_tp [5]: 0
max_med [5]: 0.08626
win_model [5]: Constant
max_med (maximum median response) [2]: 16.5553
hill_tp (Hill model top of curve) ([2]; Hill fit parameter): 16.4592
max_med (maximum median response) [6, 7]: 94.4561
win_model (winning curve-fit model) ([6]; spid AR_antagonist, sheet antagonist_fits, Constant = no concentration response): Hill
hill_gw (Hill model slope/Hill coefficient) [6, 11]: 1.437
hill_tp (Hill model top of curve) [6, 11]: 113.966

Clc1ccc(C(c2ccccc2Cl)C(Cl)(Cl)Cl)cc1 (stereo not drawn) [o,p'-DDT]
hill_ga (Hill model log AC50) [1]: 1.826
hill_tp (Hill model top of curve) ([1]; human): 110.666
max_med (maximum median response) ([1]; human): 83.8839
Agonist reference [3]: Inactive
Antagonist reference [3]: Weak
Antagonist reference ([3]; Supplementary Table S1): Weak

Clc1ccc(C(c2ccc(Cl)cc2)C(Cl)Cl)cc1 [p,p'-DDD]
hill_ga (Hill model log AC50) [1]: 1.74
hill_tp (Hill model top of curve) ([1]; human, 18 h): 93.5622
max_med (maximum median response) ([1]; human, 18 h): 93.2611

ClC(Cl)=C(c1ccc(Cl)cc1)c1ccc(Cl)cc1 [p,p'-DDE]
hill_ga (Hill model log AC50) [1]: 1.812
Antagonist reference ([3]; Supplementary Table S1): Weak
